From PubChem BioAssay AID1963833 (Molecular Pharmacology Branch, DTP, NCI, 2024) come the findings set out here.

The assay has as its system 883617-216-R-J1-PDC complex spheroid viability. Put plainly: Anticancer human tumor 883617-216-R-J1-PDC patient-derived bladder carcinoma cell line growth inhibition [POLQ]. The settings on record: for viability, T/C: stronger effect = lower value. The essentials:
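Patient-derived tumour cells were co-cultured with HUVEC and mesenchymal stem cells as multicellular spheroids at 37 °C. They were treated with POLQ inhibitors (novobiocin, ART-558, RP6685) alone or combined with other agents. Top concentrations were at or near clinical Cmax (otherwise 10 microM; SN-38 at 1 microM), decreasing in half-log steps.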

Where [1] appears, read: curve of first compound, second compound 0.0316 µM.
[2] abbreviates: curve of first compound, second compound 0.1 µM.
[3] abbreviates: curve of first compound, second compound 0.316 µM.
Setting [4] is: curve of first compound, second compound 1 µM.
Setting [5] is: curve of first compound, second compound 3.16 µM.
The mark [6] stands for this setting: curve of first compound, second compound 10 µM.
Where [7] appears, read: second compound 0.0316 µM, first compound 0.0316 µM.
[8] abbreviates: second compound 0.0316 µM, first compound 0.1 µM.
[9] abbreviates: second compound 0.0316 µM, first compound 0.316 µM.
Where [10] appears, read: second compound 0.0316 µM, first compound 1 µM.
Setting [11] is: second compound 0.1 µM, first compound 0.0316 µM.
[12] abbreviates: second compound 0.1 µM, first compound 0.1 µM.
Setting [13] is: second compound 0.1 µM, first compound 0.316 µM.
The mark [14] stands for this setting: second compound 0.1 µM, first compound 1 µM.
Setting [15] is: second compound 0.316 µM, first compound 0.0316 µM.
The mark [16] stands for this setting: second compound 0.316 µM, first compound 0.1 µM.
Setting [17] is: second compound 0.316 µM, first compound 0.316 µM.
[18] abbreviates: second compound 0.316 µM, first compound 1 µM.
[19] abbreviates: second compound 1 µM, first compound 0.0316 µM.
[20] abbreviates: second compound 1 µM, first compound 0.1 µM.
[21] abbreviates: second compound 1 µM, first compound 0.316 µM.
Setting [22] is: second compound 1 µM, first compound 1 µM.
The mark [23] stands for this setting: second compound 3.16 µM, first compound 0.0316 µM.
[24] abbreviates: second compound 3.16 µM, first compound 0.1 µM.
Setting [25] is: second compound 3.16 µM, first compound 0.316 µM.
Where [26] appears, read: second compound 3.16 µM, first compound 1 µM.
Setting [27] is: second compound 10 µM, first compound 0.0316 µM.
Setting [28] is: second compound 10 µM, first compound 0.1 µM.
[29] abbreviates: second compound 10 µM, first compound 0.316 µM.
Where [30] appears, read: second compound 10 µM, first compound 1 µM.

Several values for one entry are separate records, joined by “and”; a condition that tells them apart may be missing. Identical values can stand only once. Where only a bound is given, the exact number is not on record here.
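Note: spheroids exposed to compounds for seven days before readout.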
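Throughout, for viability, T/C: 100% = DMSO vehicle control viability.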

Turning to `C=CC(=O)N1CCN(c2nc(=O)n(-c3c(C)ccnc3C(C)C)c3nc(-c4c(O)cccc4F)c(F)cc23)C(C)C1` (configuration not stated), the viability, T/C reads like this: (compound 0.0316 µM) 74.3% and 68% and 64%; (compound 0.1 µM) 64.8% and 60.8% and 63.8%; (compound 0.316 µM) 75.8% and 70.3% and 81.9%; (compound 1 µM) 72.6% and 83.2% and 78.3%; (compound 3.16 µM) 91.3% and 76.7% and 85%; (compound 10 µM) 81.6% and 83.3% and 76.6%. For the same compound, the IC50 (curve of compound) was more than 10000 nM.
As for `COc1cc2cc(C(=O)CCC(=O)O)sc2cc1OC`, the viability, T/C by setting is: (compound 0.0316 µM) 95.8% and 105% and 103%; (compound 0.1 µM) 112% and 90% and 89.7%; (compound 0.316 µM) 91.7% and 102% and 96.7%; (compound 1 µM) 99.3% and 108% and 87.7%; (compound 3.16 µM) 105% and 96.4% and 83.4%; (compound 10 µM) 104% and 107% and 93.9%. The IC50 (curve of compound) is more than 10000 nM.
`CC1COCCN1c1cc(C2(O)CC3CCC(C2)O3)c2cnn(-c3ccn[nH]3)c2n1` (configuration not stated): the viability, T/C runs as follows: (compound 0.0316 µM) 73.6% and 75.5% and 72.3%; (compound 0.1 µM) 55.3% and 49.3% and 45.5%; (compound 0.316 µM) 50.6% and 44.3% and 45.2%; (compound 1 µM) 30.4% and 30% and 34.4%; (compound 3.16 µM) 23.1% and 26.1% and 31%; (compound 10 µM) 22.6% and 20.5% and 20.6%. For the same compound, under “curve of compound”, the IC50 is 213 nM and 137 nM and 135 nM.
In the case of `COc1ccc([C@@H](O)c2cc(-c3ncnc4cc(N5CCOCC5)ccc34)c(F)cc2Cl)nn1` + COC1C(OC(N)=O)C(O)C(Oc2ccc3c(O)c(NC(=O)c4ccc(O)c(CC=C(C)C)c4)c(=O)oc3c2C)OC1(C)C, the IC50 is, setting by setting: under setting [1], 2900 nM; under setting [2], 1800 nM; under setting [3], 1940 nM; under setting [4], 2440 nM; under setting [5], 2440 nM; under setting [6], 3210 nM. Moreover, the viability, T/C under setting [7] is 92.5%; the viability, T/C under setting [8] was 104%; the viability, T/C under setting [9] was 94.5%; the viability, T/C under setting [10] is 77.5%; the viability, T/C (second compound 0.0316 µM, first compound 3.16 µM) was 47.9%; the viability, T/C (second compound 0.0316 µM, first compound 10 µM) was 39.1%. Besides, the viability, T/C under setting [11] was 98.5%; the viability, T/C under setting [12] was 82.2%; the viability, T/C under setting [13] was 104%; the viability, T/C under setting [14] is 61.3%; the viability, T/C (second compound 0.1 µM, first compound 3.16 µM) is 45.2%; the viability, T/C (second compound 0.1 µM, first compound 10 µM) is 33%. Moreover, the viability, T/C by setting is: under setting [15], 93.9%; under setting [16], 89.2%; under setting [17], 76.8%; under setting [18], 56.1%; (second compound 0.316 µM, first compound 3.16 µM) 46%; (second compound 0.316 µM, first compound 10 µM) 28.2%. The viability, T/C is, setting by setting: under setting [19], 108%; under setting [20], 85.8%; under setting [21], 80.8%; under setting [22], 61.3%; (second compound 1 µM, first compound 3.16 µM) 45.1%; (second compound 1 µM, first compound 10 µM) 33.1%. For the same compound, the viability, T/C reads like this: under setting [23], 95.9%; under setting [24], 95.2%; under setting [25], 78.3%; under setting [26], 65.5%; (second compound 3.16 µM, first compound 3.16 µM) 45.4%; (second compound 3.16 µM, first compound 10 µM) 33.3%. The viability, T/C is, setting by setting: under setting [27], 87%; under setting [28], 79.3%; under setting [29], 86.4%; under setting [30], 68.1%; (second compound 10 µM, first compound 3.16 µM) 51.3%; (second compound 10 µM, first compound 10 µM) 34.2%.
For the compound `CCc1c2c(nc3ccc(O)cc13)-c1cc3c(c(=O)n1C2)COC(=O)[C@]3(O)CC` + COC1C(OC(N)=O)C(O)C(Oc2ccc3c(O)c(NC(=O)c4ccc(O)c(CC=C(C)C)c4)c(=O)oc3c2C)OC1(C)C, the IC50 is, setting by setting: under setting [1], 98 nM; under setting [2], 104 nM; under setting [3], 60.2 nM; under setting [4], 78.4 nM; under setting [5], 108 nM; under setting [6], 99.5 nM. Also, the viability, T/C is 63.7% (second compound 0.0316 µM, first compound 0.00316 µM); 57.6% (second compound 0.0316 µM, first compound 0.01 µM); 67.5% under setting [7]; 47.6% under setting [8]; 33.5% under setting [9]; 25.2% under setting [10]. Besides, the viability, T/C runs as follows: (second compound 0.1 µM, first compound 0.00316 µM) 58.6%; (second compound 0.1 µM, first compound 0.01 µM) 59.3%; under setting [11], 59.9%; under setting [12], 49.7%; under setting [13], 33.6%; under setting [14], 20.7%. Further, the viability, T/C (second compound 0.316 µM, first compound 0.00316 µM) is 70.1%; the viability, T/C (second compound 0.316 µM, first compound 0.01 µM) was 62.3%; the viability, T/C under setting [15] is 55.1%; the viability, T/C under setting [16] is 49.1%; the viability, T/C under setting [17] is 31.6%; the viability, T/C under setting [18] was 29.7%. Also, the viability, T/C (second compound 1 µM, first compound 0.00316 µM) was 68.7%; the viability, T/C (second compound 1 µM, first compound 0.01 µM) is 59.2%; the viability, T/C under setting [19] was 61.4%; the viability, T/C under setting [20] is 46.9%; the viability, T/C under setting [21] was 33.6%; the viability, T/C under setting [22] is 21.1%. The viability, T/C is 66.8% (second compound 3.16 µM, first compound 0.00316 µM); 58% (second compound 3.16 µM, first compound 0.01 µM); 60.2% under setting [23]; 51.8% under setting [24]; 35% under setting [25]; 21.1% under setting [26]. Also, the viability, T/C (second compound 10 µM, first compound 0.00316 µM) was 71%; the viability, T/C (second compound 10 µM, first compound 0.01 µM) was 56%; the viability, T/C under setting [27] was 63.3%; the viability, T/C under setting [28] is 46.2%; the viability, T/C under setting [29] was 42%; the viability, T/C under setting [30] was 21.7%.
Regarding `CCc1cc2c(N3CCc4c(cc(Cn5ccnc5)cc4-c4cn(C)nc4C(F)(F)F)C3=O)cc(C)nc2c(OC)n1`, the viability, T/C reads like this: (compound 0.0316 µM) 106% and 92.1% and 103%; (compound 0.1 µM) 91.4% and 85.8% and 99.9%; (compound 0.316 µM) 116% and 83.7% and 101%; (compound 1 µM) 91% and 107% and 80.5%; (compound 3.16 µM) 75% and 69.3% and 71.5%; (compound 10 µM) 54.1% and 46.2% and 47.7%. In addition, the IC50 (curve of compound) is > 10000 nM and 8290 nM and 9040 nM.

One may read the viability, T/C as the result in the treated group divided by that in the control group, in per cent. One may read the IC50 as the point on the concentration scale where inhibition reaches its midpoint.
